Test results reported in patent US9499550B2 (BRISTOL-MYERS SQUIBB COMPANY, priority 2012, dated 2016).

Experiments:
[1] = system: HCV genotype 1a (H77 strain) replicon in HUH-7 cells; experiment: HCV replicon luciferase reporter assay, genotype 1a; format: cell-based; settings: Hepatitis C virus, Huh-7, 72 h, HCV genotype 1a replicon luciferase assay, 3 days incubation, range class, read-out: LE_1a (EC50, range)
Outline: (§1)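 Replicon inhibition for both genotypes was measured as Renilla luciferase signal (EnduRen, 7.5 μM final, 2 h) after 3-day, 37° C exposure of replicon-bearing HUH-7 cells in 4% FCS DMEM, 0.5% DMSO. The 1b construct carries S1179I; the 1a H77 construct carries P1496L and S2204I. Twenty-point, 3-fold dilutions were fitted four-parametrically for EC50, and CC50 was taken from multiplexed Cell Titer-Blue.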

[2] = system: HCV genotype 1b (Con1) replicon in HUH-7 cells; experiment: HCV replicon luciferase reporter assay, genotype 1b; format: cell-based; settings: Hepatitis C virus, Huh-7, 72 h, HCV genotype 1b replicon luciferase assay, 3 days incubation, range class, read-out: LE_1b (EC50, range)
Outline: as §1

| Compound | EC50 [1] | EC50 [2] |
| --- | --- | --- |
| CCCOc1cc2c(Cl)cccc2c(O[C@@H]2C[C@H]3C(=O)N[C@]4(C(=O)NS(=O)(=O)C5(C)CC5)C[C@H]4/C=C\CC[C@@H](C)C[C@@H](C)[C@H](NC(=O)OC4C[C@@H]5C[C@H]5C4)C(=O)N3C2)n1 [Compound 1088, (1S,5S)-bicyclo[3.1.0]hexan-3-yl((2R,6S,7R,9R,13aS,14aR,16aS,Z)-2-((5-chloro-3-propoxyisoquinolin-1-yl)oxy)-7,9-dimethyl-14a-(((1-methylcyclopropyl)sulfonyl)carbamoyl)-5,16-dioxo-1,2,3,5,6,7,8,9,10,11,13a,14,14a,15,16,16a-hexadecahydrocyclopropa[e]pyrrolo[1,2-a][1,4]diazacyclopentadecin-6-yl)carbamate] | < 5.46 nM | < 5.46 nM |
| CC(C)Oc1cc2c(Cl)cccc2c(O[C@@H]2C[C@H]3C(=O)N[C@]4(C(=O)NS(=O)(=O)C5(C)CC5)C[C@H]4/C=C\CC[C@H](C)C[C@@H](C)[C@H](NC(=O)OC(C)(C)C)C(=O)N3C2)n1 [Compound 1089, tert-butyl ((2R,6S,7R,9S,13aS,14aR,16aS,Z)-2-((5-chloro-3-isopropoxyisoquinolin-1-yl)oxy)-7,9-dimethyl-14a-(((1-methylcyclopropyl)sulfonyl)carbamoyl)-5,16-dioxo-1,2,3,5,6,7,8,9,10,11,13a,14,14a,15,16,16a-hexadecahydrocyclopropa[e]pyrrolo[1,2-a][1,4]diazacyclopentadecin-6-yl)carbamate] | 4.82 to 103 nM | < 5.46 nM |
| CC(C)Oc1cc2c(Cl)cccc2c(O[C@@H]2C[C@H]3C(=O)N[C@]4(C(=O)NS(=O)(=O)C5(C)CC5)C[C@H]4/C=C\CC[C@@H](C)C[C@@H](C)[C@H](NC(=O)OC(C)(C)C)C(=O)N3C2)n1 [Compound 1090, tert-butyl ((2R,6S,7R,9R,13aS,14aR,16aS,Z)-2-((5-chloro-3-isopropoxyisoquinolin-1-yl)oxy)-7,9-dimethyl-14a-(((1-methylcyclopropyl)sulfonyl)carbamoyl)-5,16-dioxo-1,2,3,5,6,7,8,9,10,11,13a,14,14a,15,16,16a-hexadecahydrocyclopropa[e]pyrrolo[1,2-a][1,4]diazacyclopentadecin-6-yl)carbamate] | < 5.46 nM | < 5.46 nM |
| CC(C)Oc1cc2c(Cl)cccc2c(O[C@@H]2C[C@H]3C(=O)N[C@]4(C(=O)NS(=O)(=O)C5CC5)C[C@H]4/C=C\CC[C@H](C)C[C@@H](C)[C@H](NC(=O)OC(C)(C)C)C(=O)N3C2)n1 [Compound 1091, tert-butyl ((2R,6S,7R,9S,13aS,14aR,16aS,Z)-2-((5-chloro-3-isopropoxyisoquinolin-1-yl)oxy)-14a-((cyclopropylsulfonyl)carbamoyl)-7,9-dimethyl-5,16-dioxo-1,2,3,5,6,7,8,9,10,11,13a,14,14a,15,16,16a-hexadecahydrocyclopropa[e]pyrrolo[1,2-a][1,4]diazacyclopentadecin-6-yl)carbamate] | 4.82 to 103 nM | < 5.46 nM |
| CC(C)Oc1cc2c(Cl)cccc2c(O[C@@H]2C[C@H]3C(=O)N[C@]4(C(=O)NS(=O)(=O)C5CC5)C[C@H]4/C=C\CC[C@@H](C)C[C@@H](C)[C@H](NC(=O)OC(C)(C)C)C(=O)N3C2)n1 [Compound 1092, tert-butyl ((2R,6S,7R,9R,13aS,14aR,16aS,Z)-2-((5-chloro-3-isopropoxyisoquinolin-1-yl)oxy)-14a-((cyclopropylsulfonyl)carbamoyl)-7,9-dimethyl-5,16-dioxo-1,2,3,5,6,7,8,9,10,11,13a,14,14a,15,16,16a-hexadecahydrocyclopropa[e]pyrrolo[1,2-a][1,4]diazacyclopentadecin-6-yl)carbamate] | < 5.46 nM | < 5.46 nM |
| CC(C)Oc1cc2c(Cl)cccc2c(O[C@@H]2C[C@H]3C(=O)N[C@]4(C(=O)NS(=O)(=O)C5CC5)C[C@H]4/C=C\CC[C@H](C)C[C@@H](C)[C@H](NC(=O)OC(C)(C)C(F)(F)F)C(=O)N3C2)n1 [Compound 1093, 1,1,1-trifluoro-2-methylpropan-2-yl((2R,6S,7R,9S,13aS,14aR,16aS,Z)-2-((5-chloro-3-isopropoxyisoquinolin-1-yl)oxy)-14a-((cyclopropylsulfonyl)carbamoyl)-7,9-dimethyl-5,16-dioxo-1,2,3,5,6,7,8,9,10,11,13a,14,14a,15,16,16a-hexadecahydrocyclopropa[e]pyrrolo[1,2-a][1,4]diazacyclopentadecin-6-yl)carbamate] | 4.82 to 103 nM | < 5.46 nM |
| CC(C)Oc1cc2c(Cl)cccc2c(O[C@@H]2C[C@H]3C(=O)N[C@]4(C(=O)NS(=O)(=O)C5CC5)C[C@H]4/C=C\CC[C@@H](C)C[C@@H](C)[C@H](NC(=O)OC(C)(C)C(F)(F)F)C(=O)N3C2)n1 [Compound 1094, 1,1,1-trifluoro-2-methylpropan-2-yl((2R,6S,7R,9R,13aS,14aR,16aS,Z)-2-((5-chloro-3-isopropoxyisoquinolin-1-yl)oxy)-14a-((cyclopropylsulfonyl)carbamoyl)-7,9-dimethyl-5,16-dioxo-1,2,3,5,6,7,8,9,10,11,13a,14,14a,15,16,16a-hexadecahydrocyclopropa[e]pyrrolo[1,2-a][1,4]diazacyclopentadecin-6-yl)carbamate] | < 5.46 nM | < 5.46 nM |
| C[C@H]1CC/C=C\[C@@H]2C[C@@]2(C(=O)NS(=O)(=O)C2CC2)NC(=O)[C@@H]2C[C@@H](Oc3nc(OCC(F)F)cc4c(Cl)cccc34)CN2C(=O)[C@@H](NC(=O)OC(C)(C)C(F)(F)F)[C@H](C)C1 [Compound 1095, 1,1,1-trifluoro-2-methylpropan-2-yl((2R,6S,7R,9S,13aS,14aR,16aS,Z)-2-((5-chloro-3-(2,2-difluoroethoxyl)isoquinolin-1-yl)oxy)-14a-((cyclopropylsulfonyl)carbamoyl)-7,9-dimethyl-5,16-dioxo-1,2,3,5,6,7,8,9,10,11,13a,14,14a,15,16,16a-hexadecahydrocyclopropa[e]pyrrolo[1,2-a][1,4]diazacyclopentadecin-6-yl)carbamate] | 4.82 to 103 nM | < 5.46 nM |
| C[C@@H]1CC/C=C\[C@@H]2C[C@@]2(C(=O)NS(=O)(=O)C2CC2)NC(=O)[C@@H]2C[C@@H](Oc3nc(OCC(F)F)cc4c(Cl)cccc34)CN2C(=O)[C@@H](NC(=O)OC(C)(C)C(F)(F)F)[C@H](C)C1 [Compound 1096, 1,1,1-trifluoro-2-methylpropan-2-yl((2R,6S,7R,9R,13aS,14aR,16aS,Z)-2-((5-chloro-3-(2,2-difluoroethoxyl)isoquinolin-1-yl)oxy)-14a-((cyclopropylsulfonyl)carbamoyl)-7,9-dimethyl-5,16-dioxo-1,2,3,5,6,7,8,9,10,11,13a,14,14a,15,16,16a-hexadecahydrocyclopropa[e]pyrrolo[1,2-a][1,4]diazacyclopentadecin-6-yl)carbamate] | < 5.46 nM | < 5.46 nM |
| C[C@H]1CC/C=C\[C@@H]2C[C@@]2(C(=O)NS(=O)(=O)C2(C)CC2)NC(=O)[C@@H]2C[C@@H](Oc3nc(OCC(F)F)cc4c(Cl)cccc34)CN2C(=O)[C@@H](NC(=O)OC(C)(C)C(F)(F)F)[C@H](C)C1 [Compound 1097, 1,1,1-trifluoro-2-methylpropan-2-yl((2R,6S,7R,9S,13aS,14aR,16aS,Z)-2-((5-chloro-3-(2,2-difluoroethoxyl)isoquinolin-1-yl)oxy)-7,9-dimethyl-14a-(((1-methylcyclopropyl)sulfonyl)carbamoyl)-5,16-dioxo-1,2,3,5,6,7,8,9,10,11,13a,14,14a,15,16,16a-hexadecahydrocyclopropa[e]pyrrolo[1,2-a][1,4]diazacyclopentadecin-6-yl)carbamate] | 4.82 to 103 nM | < 5.46 nM |
| C[C@@H]1CC/C=C\[C@@H]2C[C@@]2(C(=O)NS(=O)(=O)C2(C)CC2)NC(=O)[C@@H]2C[C@@H](Oc3nc(OCC(F)F)cc4c(Cl)cccc34)CN2C(=O)[C@@H](NC(=O)OC(C)(C)C(F)(F)F)[C@H](C)C1 [Compound 1098, 1,1,1-trifluoro-2-methylpropan-2-yl((2R,6S,7R,9R,13aS,14aR,16aS,Z)-2-((5-chloro-3-(2,2-difluoroethoxyl)isoquinolin-1-yl)oxy)-7,9-dimethyl-14a-(((1-methylcyclopropyl)sulfonyl)carbamoyl)-5,16-dioxo-1,2,3,5,6,7,8,9,10,11,13a,14,14a,15,16,16a-hexadecahydrocyclopropa[e]pyrrolo[1,2-a][1,4]diazacyclopentadecin-6-yl)carbamate] | < 5.46 nM | < 5.46 nM |
| C[C@H]1CC/C=C\[C@@H]2C[C@@]2(C(=O)NS(=O)(=O)C2CC2)NC(=O)[C@@H]2C[C@@H](Oc3nc(OCC(F)F)cc4c(Cl)cccc34)CN2C(=O)[C@@H](NC(=O)O[C@H](C)C(F)(F)F)[C@H](C)C1 [Compound 1099, (R)-1,1,1-trifluoropropan-2-yl ((2R,6S,7R,9S,13aS,14aR,16aS,Z)-2-((5-chloro-3-(2,2-difluoroethoxyl)isoquinolin-1-yl)oxy)-14a-((cyclopropylsulfonyl)carbamoyl)-7,9-dimethyl-5,16-dioxo-1,2,3,5,6,7,8,9,10,11,13a,14,14a,15,16,16a-hexadecahydrocyclopropa[e]pyrrolo[1,2-a][1,4]diazacyclopentadecin-6-yl)carbamate] | < 5.46 nM | < 5.46 nM |
| C[C@@H]1CC/C=C\[C@@H]2C[C@@]2(C(=O)NS(=O)(=O)C2CC2)NC(=O)[C@@H]2C[C@@H](Oc3nc(OCC(F)F)cc4c(Cl)cccc34)CN2C(=O)[C@@H](NC(=O)O[C@H](C)C(F)(F)F)[C@H](C)C1 [Compound 1100, (R)-1,1,1-trifluoropropan-2-yl ((2R,6S,7R,9R,13aS,14aR,16aS,Z)-2-((5-chloro-3-(2,2-difluoroethoxyl)isoquinolin-1-yl)oxy)-14a-((cyclopropylsulfonyl)carbamoyl)-7,9-dimethyl-5,16-dioxo-1,2,3,5,6,7,8,9,10,11,13a,14,14a,15,16,16a-hexadecahydrocyclopropa[e]pyrrolo[1,2-a][1,4]diazacyclopentadecin-6-yl)carbamate] | < 5.46 nM | < 5.46 nM |
